# From patent US11247987B2, “Inhibiting ubiquitin specific peptidase 30” (FORMA Therapeutics, Inc., priority 2017, dated 2022)
# pIC50: −log10 of the molar value.
# Molecular target: T1, human recombinant USP30 (Homo sapiens, UniProt Q70CQ3)
# T1 construct: purchased Boston Biochem E-582
# T1 sequence (Q70CQ3 1-517): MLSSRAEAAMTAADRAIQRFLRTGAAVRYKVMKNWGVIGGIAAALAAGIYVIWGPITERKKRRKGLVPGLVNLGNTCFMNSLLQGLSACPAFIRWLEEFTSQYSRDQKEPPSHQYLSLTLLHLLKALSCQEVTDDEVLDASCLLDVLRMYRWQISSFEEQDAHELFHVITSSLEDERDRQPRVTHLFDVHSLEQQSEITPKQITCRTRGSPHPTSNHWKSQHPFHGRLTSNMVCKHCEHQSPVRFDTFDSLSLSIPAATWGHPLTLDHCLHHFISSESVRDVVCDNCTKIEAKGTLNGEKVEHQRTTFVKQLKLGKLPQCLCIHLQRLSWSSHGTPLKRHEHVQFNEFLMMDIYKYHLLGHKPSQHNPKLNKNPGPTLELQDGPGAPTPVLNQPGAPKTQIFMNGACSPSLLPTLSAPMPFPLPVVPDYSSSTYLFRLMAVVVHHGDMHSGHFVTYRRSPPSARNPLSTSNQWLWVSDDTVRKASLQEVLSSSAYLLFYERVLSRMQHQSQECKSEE
# Assay: Ubiquitin-Rhodamine 110 Assay for USP30 Activity (USP30 Inhibitor Biochemical Assay)
# Conditions: 0.2 nM USP30, 25 nM Ub-Rh110, 30 min preincubation, 30 min at room temperature; read-out: USP30 potency range (USP30 biochemical IC50 assay, IC50 ranges)
# Experimental: Example A: Biochemical Assay: Ubiquitin-Rhodamine 110 Assay for USP30 Activity (USP30 Inhibitor Biochemical Assay)
# The assay was performed in a final volume of 9 μL in assay buffer containing 20 mM Tris-HCl (pH 8.0, (1M Tris-HCl, pH 8.0 solution; Corning 46-031-CM)), 1 mM GSH (L-glutathione reduced, Sigma-Aldrich, G4251-100G), 0.03% BGG (0.22 μM filtered, Sigma, G7516-25G), and 0.01% Triton X-100 (Sigma, T9284-10L). Nanoliter quantities of 10-point, 3-fold serial dilution in DMSO were pre-dispensed into 1536 assay plates (Corning, #3724BC) for a final test concentration of 25 μM to 1.3 nM, top to lowest dose, respectively. Concentration and incubation times were optimized for the maximal signal-to-background while maintaining initial velocity conditions at a fixed substrate concentration. The final concentration of USP30 (human recombinant USP30, Boston Biochem, cat. # E-582) in the assay was 0.2 nM. […] 3 μL of 2×USP30 was added to assay plates (pre-stamped with compound), preincubated for 30 minutes and then treated with 3 μL of 2×Ub-Rh110. Plates were incubated for 30 minutes at room temperature before addition of 3 μL of stop solution (final concentration of 10 mM citric acid (Sigma, 251275-500G)). Fluorescence was read on the Envision (excitation at 485 nm and emission at 535 nm; Perkin Elmer) or on the PheraSTAR (excitation at 485 nm and emission at 535 nm; BMG Labtech).
# For all assay formats data were reported as percent inhibition compared with control wells based on the following equation: % inh=1−((FLU−AveLow)/(AveHigh−AveLow)) where FLU=measured Fluorescence, AveLow=average Fluorescence of no enzyme control (n=16), and AveHigh=average Fluorescence of DMSO control (n=16). IC50 values were determined by curve fitting of the standard 4 parameter logistic fitting algorithm included in the Activity Base software package: IDBS XE Designer Model205. Data is fitted using the Levenburg Marquardt algorithm.
row,Compound,pIC50
1,"CC(C)(C)[C@H]1CC[C@@H](NC(=O)[C@H]2C[C@H](NC#N)C2)CC1 [Compound 1-71, (1r,3r)-3-(cyanoamino)-N-[(1s,4s)-4-tert-butylcyclohexyl]cyclo-butane-1-carboxamide]",6.00 to 7.00
2,"N#CN[C@H]1CC[C@H](C(=O)Nc2ncc(-c3ccccc3)s2)C1 [Compound 12-4, (1S,3S)-3-(cyanoamino)-N-(5-phenyl-1,3-thiazol-2-yl)cyclopentane-1-carboxamide]",5.00 to 6.00
3,"Cc1cc(NC(=O)[C@H]2C[C@H](NC#N)C2)cc(-c2ccccc2F)c1 [Compound 1-61, (1r,3r)-3-(cyanoamino)-N-[3-(2-fluorophenyl)-5-methylphenyl]cyclo-butane-1-carboxamide]",6.00 to 7.00
4,"N#CN[C@H]1C[C@H](C(=O)Nc2nc(-c3ccc(Cl)cc3)cs2)C1 [Compound 1-68, (1r,3r)-N-[4-(4-chlorophenyl)-1,3-thiazol-2-yl]-3-(cyanoamino)cyclo-butane-1-carboxamide]",6.00 to 7.00
5,"Cn1cc(-c2ccc(-c3cc(C(=O)N4CC[C@]45C[C@@H](NC#N)C5)on3)cc2)cn1 [Compound 3-5, {[(4r,6s)-1-{3-[4-(1-methyl-1H-pyrazol-4-yl)phenyl]-1,2-oxazole-5-carbonyl}-1-azaspiro[3.3]heptan-6-yl]amino} carbonitrile]",6.00 to 7.00
6,"C[C@@H]1CCCC[C@@H]1c1cnc(NC(=O)[C@H]2C[C@H](NC#N)C2)s1 [Compound 1-21, (1r,3r)-3-(cyanoamino)-N-{5-[(1S,2R)-2-methylcyclohexyl]-1,3-thiazol-2-yl}cyclobutane-1-carboxamide]",6.00 to 7.00
7,"CC1(C)[C@H](NC#N)C[C@H]1C(=O)Nc1cnc(C2CCCCC2)s1 [Compound 1-15, (1R,3R)-3-(cyanoamino)-N-(2-cyclohexyl-1,3-thiazol-5-yl)-2,2-dimethylcyclobutane-1-carboxamide]",6.00 to 7.00
8,"CC(C)(C)c1sc(NC(=O)[C@H]2C[C@H](NC#N)C2)nc1Cl [Compound 1-19, (1r,3r)-N-(5-tert-butyl-4-chloro-1,3-thiazol-2-yl)-3-(cyanoamino)cyclo-butane-1-carboxamide]",> 7.00
9,"N#CN[C@H]1C[C@H](C(=O)Nc2nc(Cl)c(C3CC3)s2)C1 [Compound 1-36, (1r,3r)-N-(4-chloro-5-cyclopropyl-1,3-thiazol-2-yl)-3-(cyanoamino)cyclo-butane-1-carboxamide]",> 7.00
10,"N#CNC1CN(C(=O)Nc2ncc(C3CCCCC3)s2)C1 [Compound 2-1, 3-(cyanoamino)-N-(5-cyclohexyl-1,3-thiazol-2-yl)azetidine-1-carboxamide]",5.00 to 6.00
11,"N#CN[C@H]1CCC[C@@H](C(=O)Nc2ncc(C3CCCCC3)s2)C1 [Compound 10-4, (1R,3S)-3-(cyanoamino)-N-(5-cyclohexyl-1,3-thiazol-2-yl)cyclohexane-1-carboxamide]",< 4.60
12,"N#CN[C@@H]1C[C@H]1C(=O)Nc1ncc(C2CCCCC2)s1 (relative stereo) [Compound 11-1, trans-2-(cyanoamino)-N-(5-cyclohexyl-1,3-thiazol-2-yl)cyclopropane-1-carboxamide]",5.00 to 6.00
13,"CN(c1nc(Cl)c(C2CCCCC2)s1)C(=O)[C@]1(F)C[C@@H](NC#N)C1 [Compound 1-58, (1s,3s)-N-(4-chloro-5-cyclohexyl-1,3-thiazol-2-yl)-3-(cyanoamino)-1-fluoro-N-methylcyclobutane-1-carboxamide]",6.00 to 7.00
14,"CC(C)(C)c1sc(NC(=O)[C@]2(F)C[C@@H](NC#N)C2)nc1Cl [Compound 1-59, (1s,3s)-N-(5-tert-butyl-4-chloro-1,3-thiazol-2-yl)-3-(cyanoamino)-1-fluorocyclobutane-1-carboxamide]",6.00 to 7.00
15,"N#CN[C@H]1C[C@@]2(CCN(c3nc(Cl)c(C4CCCCC4)s3)C2=O)C1 [Compound 7-2, {[(2s,4r)-6-(4-chloro-5-cyclohexyl-l,3-thiazol-2-yl)-5-oxo-6-azaspiro[3.4]octan-2-yl]amino}carbonitrile]",6.00 to 7.00
16,"N#CN[C@@H]1CCC[C@@H]1C(=O)Nc1ncc(C2CCCCC2)s1 [Compound 10-8, (1S,2R)-2-(cyanoamino)-N-(5-cyclohexyl-1,3-thiazol-2-yl)cyclopentane-1-carboxamide]",5.00 to 6.00
17,"N#CN[C@H]1C[C@H](C(=O)Nc2ccc(N3CCOCC3)cc2)C1 [Compound 5-14, trans-3-(cyanoamino)-N-[4-(morpholin-4-yl)phenyl]cylobutane-1-carboxamide]",4.60 to 5.00
18,"N#CN[C@H]1C[C@H](C(=O)Nc2cc(Cl)n(C3CCCCC3)n2)C1 [Compound 1-39, (1r,3r)-N-(5-chloro-1-cyclohexyl-1H-pyrazo1-3-yl)-3-(cyanoamino)cyclo-butane-1-carboxamide]",6.00 to 7.00
19,"N#CN[C@H]1C[C@H](C(=O)Nc2nc(C3CC3)c(C3CCCCC3)s2)C1 [Compound 1-25, (1r,3r)-3-(cyanoamino)-N-(5-cyclohexyl-4-cyclopropyl-1,3-thiazol-2-yl)cyclobutane-1-carboxamide]",> 7.00
20,"N#CN[C@H]1C[C@H]1C(=O)Nc1ncc(C2CCCCC2)s1 (relative stereo) [Compound 11-2, cis-2-(cyanoamino)-N-(5-cyclohexyl-1,3-thiazol-2-yl)cyclopropane-1-carboxamide]",5.00 to 6.00
21,"N#CN[C@H]1C[C@H](C(=O)Nc2ccn(-c3ccccc3)n2)C1 [Compound 5-6, trans-3-(cyanoamino)-N-(1-phenyl-1H-pyrazol-3-y1)cyclobutane-1-carboxamide]",5.00 to 6.00
22,"N#CN[C@H]1CCN(C(=O)Nc2ncc(C3CCCCC3)s2)C1 [Compound 2-2, (3S)-3-(cyanoamino)-N-(5-cyclohexyl-1,3-thiazol-2-yl)pyrrolidine-1-carboxamide]",5.00 to 6.00
23,"N#CN[C@H]1C[C@H](C(=O)Nc2ncc(-c3cccc(C#N)c3)s2)C1 [Compound 1-40, (1r,3r)-3-(cyanoamino)-N-[5-(3-cyanophenyl)-1,3-thiazol-2-yl]cyclobutane-1-carboxamide]",6.00 to 7.00
24,"Cc1nc(C2CCCCC2)sc1NC(=O)[C@H]1C[C@H](NC#N)C1 [Compound 1-7, (1r,3r)-3-(cyanoamino)-N-(2-cyclohexyl-4-methyl-1,3-thiazol-5-yl)cyclobutane-1-carboxamide]",6.00 to 7.00
25,"N#CN[C@H]1CC[C@H](C(=O)Nc2ncc(C3CCCCC3)s2)C1 [Compound 12-3, (1S,3S)-3-(cyanoamino)-N-(5-cyclohexyl-1,3-thiazol-2-yl)cyclopentane-1-carboxamide]",6.00 to 7.00
26,"C[C@H]1CCCC[C@H]1c1cnc(NC(=O)[C@H]2C[C@H](NC#N)C2)s1 [Compound 1-22, (1r,3r)-3-(cyanoamino)-N-{5-[(1R,2S)-2-methylcyclohexyl]-1,3-thiazol-2-yl}cyclobutane-1-carboxamide]",6.00 to 7.00
27,"N#CN[C@H]1C[C@H](N2C[C@@H](Nc3ncc(C4CCCCC4)s3)CC2=O)C1 (single isomer, unassigned) [Compound 6-1]",6.00 to 7.00
28,"CN(c1cc(-c2cccc(Cl)c2)no1)C(=O)[C@H]1C[C@H](NC#N)C1 [Compound 1-45, (1r,3r)-N-[3-(3-chlorophenyl)-1,2-oxazol-5-yl]-3-(cyanoamino)-N-methylcyclobutane-1-carboxamide]",6.00 to 7.00
29,"N#CN[C@H]1C[C@H](C(=O)Nc2ncc([C@H]3CCCC[C@@H]3C(F)(F)F)s2)C1 [Compound 1-34, (1r,3r)-3-(cyanoamino)-N-{5-[(1S,2S)-2-(trifluoromethyl)cyclo-hexyl]-1,3-thiazol-2-yl}cyclobutane-1-carboxamide]",6.00 to 7.00
